# Data published in patent US10604526B2, “Chemokine receptor modulators and uses thereof” (RAPT THERAPEUTICS, INC., priority 2016, dated 2020).
# Target: T1, hCCR4 (Homo sapiens, UniProt P51679)
# T1 sequence (P51679 1-360): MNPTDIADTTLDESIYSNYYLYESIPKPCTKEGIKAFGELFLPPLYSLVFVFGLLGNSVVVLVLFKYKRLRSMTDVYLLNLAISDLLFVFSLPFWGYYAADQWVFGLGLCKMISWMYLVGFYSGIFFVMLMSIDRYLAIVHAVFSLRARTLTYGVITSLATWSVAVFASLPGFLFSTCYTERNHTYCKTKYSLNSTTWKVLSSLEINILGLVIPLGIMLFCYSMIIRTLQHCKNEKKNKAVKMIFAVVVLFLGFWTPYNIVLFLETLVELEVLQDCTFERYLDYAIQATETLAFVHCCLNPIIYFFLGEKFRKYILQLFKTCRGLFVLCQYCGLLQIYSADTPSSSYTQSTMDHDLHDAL
# Test: Calcium flux assay
# Type: cell-based
# Conditions: Chem5-hCCR4 cells, CCL22 at EC80 of 1.5 nM, FLIPR Calcium 6 dye; read-out: Potency (IC50)
# Outline: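 Chem5 cells expressing hCCR4 were serum-starved for 2 h, loaded with Calcium 6 dye plus 2.5 mM probenecid, then given compound for 1 h at 37 °C (0.5% DMSO). CCL22 was added from a 7.5 nM working solution (5× EC80 of 1.5 nM). IC50 came from ΔF/Fmin (485/525 nm) by 4-parameter fit.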
row,IC50,Compound
1,0.1 to 0.5 µM,"C[C@H](c1ccc(Cl)cc1Cl)n1nc(C#N)c2ncc(N3CC([C@@H]4CCCN(Cc5cnc[nH]5)C4)C3)nc21 (single isomer, unassigned) [Example 111]"
2,< 0.1 µM,"C[C@H](c1ccc(Cl)cc1Cl)n1nc(C#N)c2ncc(N3CC([C@H]4CCCN(Cc5cnc[nH]5)C4)C3)nc21 (single isomer, unassigned) [Example 112]"
3,0.1 to 0.5 µM,"Cc1nn([C@H](C)c2ccc(Cl)cc2Cl)c2nc(N3CC([C@@H]4CCCN(CCCS(C)(=O)=O)C4)C3)cnc12 (single isomer, unassigned) [Example 113]"
4,< 0.1 µM,"Cc1nn([C@H](C)c2ccc(Cl)cc2Cl)c2nc(N3CC([C@H]4CCCN(CCCS(C)(=O)=O)C4)C3)cnc12 (single isomer, unassigned) [Example 114]"
5,0.1 to 0.5 µM,"C[C@H](c1ccc(Cl)cc1Cl)n1nc(C(F)(F)F)c2ncc(N3CC([C@@H]4CCCN(CCCS(C)(=O)=O)C4)C3)nc21 (single isomer, unassigned) [Example 115]"
6,< 0.1 µM,"C[C@H](c1ccc(Cl)cc1Cl)n1nc(C(F)(F)F)c2ncc(N3CC([C@H]4CCCN(CCCS(C)(=O)=O)C4)C3)nc21 (single isomer, unassigned) [Example 116]"
7,< 0.1 µM,"C[C@H](c1ccc(Cl)cc1F)n1nc(C#N)c2ncc(N3CC([C@H]4CCCN(CCO)C4)C3)nc21 [Example 55, 1-((R)-1-(4-chloro-2-fluorophenyl)ethyl)-6-(3-((R)-1-(2-hydroxyethyl)piperidin-3-yl)azetidin-1-yl)-1H-pyrazolo[3,4-b]pyrazine-3-carbonitrile]"
8,0.1 to 0.5 µM,"CC(C)N1CCC[C@H](C2CN(c3cnc4c(C(F)(F)F)nn([C@H](C)c5ccc(Cl)cc5Cl)c4n3)C2)C1 [Example 102, 1-((R)-1-(2,4-dichlorophenyl)ethyl)-6-(3-((R)-1-isopropylpiperidin-3-yl)azetidin-1-yl)-3-(trifluoromethyl)-1H-pyrazolo[3,4-b]pyrazine]"
9,< 0.1 µM,"C[C@H](c1ccc(Cl)cc1Cl)n1nc(C(F)(F)F)c2ncc(N3CC([C@H]4CCCN(C[C@@H](C)O)C4)C3)nc21 [Example 103, (R)-1-((R)-3-(1-(1-((R)-1-(2,4-dichlorophenyl)ethyl)-3-(trifluoromethyl)-1H-pyrazolo[3,4-b]pyrazin-6-yl)azetidin-3-yl)piperidin-1-yl)propan-2-ol]"
10,< 0.1 µM,"C[C@H](O)CN1CCC[C@H](C2CN(c3cnc4c(C(F)(F)F)nn([C@H](C)c5ccc(Cl)cc5Cl)c4n3)C2)C1 [Example 104, (S)-1-((R)-3-(1-(1-((R)-1-(2,4-dichlorophenyl)ethyl)-3-(trifluoromethyl)-1H-pyrazolo[3,4-b]pyrazin-6-yl)azetidin-3-yl)piperidin-1-yl)propan-2-ol]"
11,< 0.1 µM,"CC(=O)N[C@H](C)CN1CCC[C@H](C2CN(c3cnc4c(C(F)(F)F)nn([C@H](C)c5ccc(Cl)cc5Cl)c4n3)C2)C1 [Example 105, N—((R)-1-((R)-3-(1-(1-((R)-1-(2,4-dichlorophenyl)ethyl)-3-(trifluoromethyl)-1H-pyrazolo[3,4-b]pyrazin-6-yl)azetidin-3-yl)piperidin-1-yl)propan-2-yl)acetamide]"
12,< 0.1 µM,"CC(=O)N[C@@H](C)CN1CCC[C@H](C2CN(c3cnc4c(C(F)(F)F)nn([C@H](C)c5ccc(Cl)cc5Cl)c4n3)C2)C1 [Example 106, N—((S)-1-((R)-3-(1-(1-((R)-1-(2,4-dichlorophenyl)ethyl)-3-(trifluoromethyl)-1H-pyrazolo[3,4-b]pyrazin-6-yl)azetidin-3-yl)piperidin-1-yl)propan-2-yl)acetamide]"

row,Compound,IC50
1,"N-(2-((R)-3-(1-(1-((R)-1-(2,4-dichlorophenyl)ethyl)-3-(trifluoromethyl)-1H-pyrazolo[3,4-b]pyrazin-6-yl)azetidin-3-yl)piperidin-1-yl)ethyl)propane-2-sulfonamide and N-(2-((S)-3-(1-(1-((R)-1-(2,4-dichlorophenyl)ethyl)-3-(trifluoromethyl)-1H-pyrazolo[3,4-b]pyrazin-6-yl)azetidin-3-yl)piperidin-1-yl)ethyl)propane-2-sulfonamide [Example 66]",< 0.1 µM
